Laboratory results taken from patent publication US9714233B2, “Processes and intermediates for making a JAK inhibitor” (Incyte Corporation, priority 2013, dated 2017).

Target: T1, human JAK1 (a.a. 837-1142) catalytic domain (Homo sapiens, UniProt P23458)
T1 construct: human JAK1 (a.a. 837-1142); His tag (N); made in house; host or cells: insect cells (baculovirus)
Assay: In vitro JAK kinase assay (HTRF, phosphorylation of biotinylated peptide), JAK1
Assay type: biochemical
Conditions: measured at 1 mM ATP
Protocol: The compound of Formula I was tested for inhibitory activity of JAK targets according to the following in vitro assay described in Park et al., Analytical Biochemistry 1999, 269, 94-104. The catalytic domains of human JAK1 (a.a. 837-1142) and JAK2 (a.a. 828-1132) with an N-terminal His tag were expressed using baculovirus in insect cells and purified. The catalytic activity of JAK1 and JAK2 was assayed by measuring the phosphorylation of a biotinylated peptide. The phosphorylated peptide was detected by homogenous time resolved fluorescence (HTRF). IC50s of compounds were measured for each kinase in the 40 microL reactions that contain the enzyme, ATP and 500 nM peptide in 50 mM Tris (pH 7.8) buffer with 100 mM NaCl, 5 mM DTT, and 0.1 mg/mL (0.01%) BSA. For the 1 mM IC50 measurements, ATP concentration in the reactions was 1 mM. Reactions were carried out at room temperature for 1 hr and then stopped with 20 μL 45 mM EDTA, 300 nM SA-APC, 6 nM Eu-Py20 in assay buffer (Perkin Elmer, Boston, Mass.). Binding to the Europium labeled antibody took place for 40 minutes and HTRF signal was measured on a Fusion plate reader (Perkin Elmer, Boston, Mass.).

T1 sequence (P23458 849-1154 limits assumed): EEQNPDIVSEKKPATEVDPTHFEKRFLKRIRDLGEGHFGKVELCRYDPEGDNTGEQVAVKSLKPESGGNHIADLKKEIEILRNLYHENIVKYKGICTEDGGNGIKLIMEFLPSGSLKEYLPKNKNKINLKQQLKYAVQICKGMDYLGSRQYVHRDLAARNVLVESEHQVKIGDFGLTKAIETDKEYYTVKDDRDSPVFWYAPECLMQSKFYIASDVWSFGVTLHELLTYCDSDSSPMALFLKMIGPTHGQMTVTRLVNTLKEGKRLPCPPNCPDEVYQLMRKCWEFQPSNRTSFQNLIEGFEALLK

- IC50: ≤ 5 nM
Structure (SMILES): N#CCC1(n2cc(-c3ncnc4[nH]ccc34)cn2)CN(C2CCN(C(=O)c3ccnc(C(F)(F)F)c3F)CC2)C1 [Formula I, {1-{1-[3-fluoro-2-(trifluoromethyl)isonicotinoyl]piperidin-4-yl}-3-[4-(7H-pyrrolo[2,3-d]pyrimidin-4-yl)-1H-pyrazol-1-yl]azetidin-3-yl}acetonitrile]
